Source: ChEMBL document CHEMBL5550154, “Novel biaryloxazolidinone derivatives with broad-spectrum antibacterial activity, favorable drug-like profiles and in vivo efficacy against linezolid-resistant Staphylococcusaureus” (Eur J Med Chem, 2024)
In brackets after ≈: the same amount, converted by molar mass.

Legend:
Format in all cases: functional
Conditions in all cases: time 16-20 hrs
Enterococcus faecalis = experiment: Antibacterial activity against linezolid-resistant Enterococcus faecalis assessed as inhibition of bacterial growth incubated for 16 to 20 hrs by CLSI based broth liquid microdilution method
Staphylococcus aureus [1] = experiment: Antibacterial activity against methicillin-resistant Staphylococcus aureus assessed as inhibition of bacterial growth incubated for 16 to 20 hrs by CLSI based broth liquid microdilution method
Staphylococcus aureus [2] = experiment: Antibacterial activity against methicillin-sensitive Staphylococcus aureus assessed as inhibition of bacterial growth incubated for 16 to 20 hrs by CLSI based broth liquid microdilution method
Staphylococcus aureus [3] = experiment: Antibacterial activity against linezolid-resistant Staphylococcus aureus assessed as inhibition of bacterial growth incubated for 16 to 20 hrs by CLSI based broth liquid microdilution method
Staphylococcus aureus [4] = experiment: Antibacterial activity against Staphylococcus aureus ATCC29213 assessed as inhibition of bacterial growth incubated for 16 to 20 hrs by CLSI based broth liquid microdilution method

Compound | MIC (Enterococcus faecalis) | MIC (Staphylococcus aureus [1]) | MIC (Staphylococcus aureus [2]) | MIC (Staphylococcus aureus [3]) | MIC (Staphylococcus aureus [4])
CN1CCN(/N=C/c2ccc(-c3ccc(N4C[C@H](CO)OC4=O)cc3F)cn2)CC1 | 0.5 µg/mL (≈ 1.21 µM) | 0.125 µg/mL (≈ 0.302 µM) | 0.125 µg/mL (≈ 0.302 µM) | 0.125 µg/mL (≈ 0.302 µM) | 0.125 µg/mL (≈ 0.302 µM)
CC(C)S(=O)(=O)NC[C@H]1CN(c2ccc(-c3ccc(/C=N/N4CCCCC4)nc3)c(F)c2)C(=O)O1 | > 64 µg/mL | 4 µg/mL (≈ 7.94 µM) | 2 µg/mL (≈ 3.97 µM) | > 64 µg/mL | 4 µg/mL (≈ 7.94 µM)
CCS(=O)(=O)NC[C@H]1CN(c2ccc(-c3ccc(/C=N/N4CCCCC4)nc3)c(F)c2)C(=O)O1 | 8 µg/mL (≈ 16.3 µM) | 1 µg/mL (≈ 2.04 µM) | 1 µg/mL (≈ 2.04 µM) | > 16 µg/mL | 1 µg/mL (≈ 2.04 µM)
O=C1O[C@@H](CF)CN1c1ccc(-c2ccc(/C=N/N3CCCCC3)nc2)c(F)c1 | > 16 µg/mL | 0.5 µg/mL (≈ 1.25 µM) | 0.25 µg/mL (≈ 0.624 µM) | 0.5 µg/mL (≈ 1.25 µM) | 0.25 µg/mL (≈ 0.624 µM)
CS(=O)(=O)OC[C@H]1CN(c2ccc(-c3ccc(/C=N/N4CCCCC4)nc3)c(F)c2)C(=O)O1 | 1 µg/mL (≈ 2.1 µM) | 0.008 µg/mL (≈ 0.0168 µM) | 0.008 µg/mL (≈ 0.0168 µM) | > 16 µg/mL | 0.015 µg/mL (≈ 0.0315 µM)
O=C1O[C@@H](CO)CN1c1ccc(-c2ccc(/C=N/Nc3ccncn3)nc2)c(F)c1 | 64 µg/mL (≈ 157 µM) | 1 µg/mL (≈ 2.45 µM) | 1 µg/mL (≈ 2.45 µM) | 1 µg/mL (≈ 2.45 µM) | 1 µg/mL (≈ 2.45 µM)
O=C1O[C@@H](CO)CN1c1ccc(-c2ccc(/C=N/Nc3ccc(Cl)cc3)nc2)c(F)c1 | 32 µg/mL (≈ 72.6 µM) | 0.5 µg/mL (≈ 1.13 µM) | 0.25 µg/mL (≈ 0.567 µM) | 0.5 µg/mL (≈ 1.13 µM) | 0.5 µg/mL (≈ 1.13 µM)
Cc1cccc(N/N=C/c2ccc(-c3ccc(N4C[C@H](CO)OC4=O)cc3F)cn2)n1 | 1 µg/mL (≈ 2.37 µM) | 0.5 µg/mL (≈ 1.19 µM) | 0.25 µg/mL (≈ 0.593 µM) | 0.5 µg/mL (≈ 1.19 µM) | 0.5 µg/mL (≈ 1.19 µM)
NC[C@H]1CN(c2ccc(-c3ccc(/C=N/N4CCCCC4)nc3)c(F)c2)C(=O)O1 | 32 µg/mL (≈ 80.5 µM) | 16 µg/mL (≈ 40.3 µM) | 8 µg/mL (≈ 20.1 µM) | 32 µg/mL (≈ 80.5 µM) | 8 µg/mL (≈ 20.1 µM)
O=C1O[C@@H](CO)CN1c1ccc(-c2ccc(/C=N/Nc3ncccn3)nc2)c(F)c1 | 4 µg/mL (≈ 9.79 µM) | 1 µg/mL (≈ 2.45 µM) | 0.5 µg/mL (≈ 1.22 µM) | 1 µg/mL (≈ 2.45 µM) | 1 µg/mL (≈ 2.45 µM)
NC(=S)N/N=C/c1ccc(-c2ccc(N3C[C@H](CO)OC3=O)cc2F)cn1 | 1 µg/mL (≈ 2.57 µM) | 0.125 µg/mL (≈ 0.321 µM) | 0.125 µg/mL (≈ 0.321 µM) | 0.25 µg/mL (≈ 0.642 µM) | 0.125 µg/mL (≈ 0.321 µM)
